For 65 compounds, logP results are on record in the OPERA property sets (Mansouri et al. 2018).

`OCc1nonc1-c1ccccc1` displayed a logP of 1.92. As for `COC(=O)Nc1nonc1C`, the figure is 0.42; as for `CCc1nonc1C`, 1.18; as for `Cc1c(S(=O)(=O)c2ccccc2)no[n+]1[O-]`, 2.03. In the case of `[O-][n+]1onc(-c2ccccc2)c1Cl` it was 2.7; in that of `Cc1no[n+]([O-])c1Cc1ccccc1`, 2.22. In the case of `CC(=O)c1no[n+]([O-])c1C` it was 0.8; in that of `Nc1nonc1-c1ccccc1`, 1.81. Take `CNC(=O)Nc1nonc1C`: the lipophilicity (logP) was 0.3. In the case of `Cc1no[n+]([O-])c1S(=O)(=O)c1ccccc1` it was 2.26.

Consider `[O-][n+]1onc(Cl)c1-c1ccccc1`, for which the logP came out at 2.82. As for `O=Cc1c(-c2ccccc2)no[n+]1[O-]`, the figure is 2.92; as for `Cc1no[n+]([O-])c1C=O`, 1.29; as for `Cc1c(-c2ccccc2)no[n+]1[O-]`, 2.17.

Turning to `Cc1no[n+]([O-])c1C(N)=O`, the logP was 0.36.

Take `O=Cc1no[n+]([O-])c1-c1ccccc1`: the logP was 2.61.

The compound `CC(=O)Nc1nonc1C` registered a log partition coefficient (logP) of 0.17. As for `Cc1nonc1S(=O)c1ccccc1` (stereo not given), the figure is 1.76. As for `O=[N+]([O-])c1nonc1-c1ccccc1`, the figure is 2.63; as for `[O-][n+]1onc(-c2ccccc2)c1-c1ccccc1`, 3.64; as for `Cc1no[n+]([O-])c1S(=O)c1ccccc1` (stereo not given), 1.75. For the compound `Cc1c(Sc2ccccc2)no[n+]1[O-]`, the logP is 2.63. In the case of `Cc1nonc1Sc1ccccc1` it was 2.92; in that of `[O-][n+]1onc2ccccc21`, 1.43.

The compound `CCS(=O)(=O)c1no[n+]([O-])c1C` came in with a logP of 0.65. In the case of `Cc1c(N)no[n+]1[O-]` it was -0.17. `CCCc1nonc1C`: the logP came to 1.71. Compound `COC(=O)c1nonc1C` gave a logP of 0.94. `Cc1nonc1-c1ccccc1[N+](=O)[O-]` displayed a logP of 2.21. As for `Cc1no[n+]([O-])c1N`, the figure is -0.32; as for `Cc1c(Cc2ccccc2)no[n+]1[O-]`, 2.08; as for `Cc1nonc1S(=O)(=O)c1ccccc1`, 2.36.

With `c1ccc2n[se]nc2c1`, the logP turned out to be 1.64. In the case of `[O-][n+]1onc(CO)c1-c1ccccc1` it was 1.64; in that of `c1ccc2nsnc2c1`, 1.98; in that of `CNC(=O)c1nonc1C`, 0.56. With `[O-][n+]1onc(-c2ccccc2)c1CO`, the lipophilicity (logP) was determined as 1.77. As for `Cc1c(S(=O)c2ccccc2)no[n+]1[O-]` (stereo not given), the figure is 1.5; as for `Cc1c(C=O)no[n+]1[O-]`, 1.02.

With `Nc1nonc1N`, the lipophilicity (logP) was -0.49. In the case of `Nc1nonc1NC(=O)c1ccccc1` it was 1.41; in that of `Cc1n[se]nc1C`, 0.89. As for `Cc1nonc1C`, the figure is 0.71; as for `[O-][n+]1onc(Cc2ccccc2)c1Cc1ccccc1`, 3.65. In the case of `Cc1no[n+]([O-])c1Cl` it was 0.9; in that of `c1ccc2nonc2c1`, 1.69. `Nc1c(-c2ccccc2)no[n+]1[O-]`: the logP came out at 1.42. In the case of `COC(=O)c1no[n+]([O-])c1C` it was 0.56; in that of `Cc1nonc1[N+](=O)[O-]`, 0.97. As for `Cc1c(C(N)=O)no[n+]1[O-]`, the figure is 0.03; as for `c1cnon1`, 0.16; as for `COC(=O)c1c(C)no[n+]1[O-]`, 0.69.

In turn, `Cc1nsnc1C` gave a logP of 1.28. In the case of `Clc1nonc1-c1ccccc1` it was 3.2; in that of `Cc1c(Cl)no[n+]1[O-]`, 1.02. In the case of `CC(=O)Nc1nonc1N` it was -0.23. In the case of `Cc1nonc1C(N)=O` it was 0.31; in that of `Nc1no[n+]([O-])c1-c1ccccc1`, 1.47. Take `c1ccc(-c2nonc2-c2ccccc2)cc1`: the lipophilicity (logP) was 3.83. As for `Cc1no[n+]([O-])c1C`, the figure is 0.23; as for `Cc1nonc1-c1ccccc1`, 2.59.

As for `Cc1no[n+]([O-])c1-c1ccccc1`, the logP was found to be 2.16. In the case of `CC(=O)c1c(C)no[n+]1[O-]` it was 0.98. In the case of `Cc1no[n+]([O-])c1Sc1ccccc1` it was 2.74; in that of `Cc1nonc1N`, 0.09.

The term logP denotes the decadic logarithm of the partition coefficient of the neutral form, usually between octanol and water. Low readings indicate lower lipophilicity, high ones higher lipophilicity.
